Data: patent US20060058314A1, “Oxazolidinone derivatives and their use as antibacterial agents” (AstraZeneca AB, priority 2002, published 2006)

Columns and labels:
Assay type in all cases: cell-based
[1] = system: Enterococcus faecium; experiment: MIC, agar with 5% defibrinated horse blood, enterococci; conditions: agar + 5% horse blood, 10^4 CFU/spot, 37° C., 5% CO2, 48 hours
Experimental: (§1) The following results were obtained on a standard in-vitro test system. The activity is described in terms of the minimum inhibitory concentration (MIC) determined by the agar-dilution technique with an inoculum size of 10^4 CFU/spot. Typically, compounds are active in the range 0.01 to 256 μg/ml.
(§2) Streptococci and enterococci were tested on agar supplemented with 5% defibrinated horse blood, an inoculum of 10^4 CFU/spot and an incubation temperature of 37° C. in an atmosphere of 5% carbon dioxide for 48 hours—blood is required for the growth of some of the test organisms. Fastidious Gram negative organisms were tested in Mueller-Hinton broth, supplemented with hemin and NAD, grown aerobically for 24 hours at 37° C., and with an innoculum of 5×10^4 CFU/well.

[2] = system: Moraxella catarrhalis; experiment: MIC, fastidious Gram negative organisms in Mueller-Hinton broth; conditions: Mueller-Hinton broth + hemin and NAD, 24 hours, 37° C., 5×10^4 CFU/well
Experimental: as §1, §2

[3] = system: Haemophilus influenzae; experiment: as above; conditions: Mueller-Hinton broth + hemin and NAD, 24 hours, 37° C., 5×10^4 CFU/well
Experimental: as §1, §2

[4] = system: Streptococcus pneumoniae; experiment: MIC, agar with 5% defibrinated horse blood, streptococci; conditions: agar + 5% horse blood, 10^4 CFU/spot, 37° C., 5% CO2, 48 hours
Experimental: as §1, §2

[5] = system: Linezolid Resistant Streptococcus pneumoniae; experiment: as above; conditions: agar + 5% horse blood, 10^4 CFU/spot, 37° C., 5% CO2, 48 hours
Experimental: as §1, §2

[6] = system: Staphylococcus aureus MRQR (methicillin resistant and quinolone resistant); experiment: MIC, agar dilution, staphylococci; conditions: 10^4 CFU/spot, 37° C., 24 hours
Experimental: as §1
(§3) Staphylococci were tested on agar, using an inoculum of 10^4 CFU/spot and an incubation temperature of 37° C. for 24 hours—standard test conditions for the expression of methicillin resistance.

[7] = system: Staphylococcus aureus MSQS (methicillin sensitive and quinolone sensitive); experiment: MIC, agar dilution, staphylococci; conditions: 10^4 CFU/spot, 37° C., 24 hours
Experimental: as §1, §3

O=C1O[C@@H](Cn2ccnn2)CN1c1ccc(-c2cnc(C3=NOC(CO)C3)nc2)c(F)c1 (mixture of isomers) [Example 1, 3-(3-Fluoro-4-{2-(5RS)-[5-(hydroxymethyl)-4,5-dihydroisoxazol-3-yl]pyrimidin-5-yl}phenyl)-5-(5R)-(1H-1,2,3-triazol-1-ylmethyl)-1,3-oxazolidin-2-one]
MIC [1]: 2 µg/mL
MIC [2]: 2 µg/mL
MIC [3]: 8 µg/mL
MIC [4]: 0.25 µg/mL
MIC [5]: 4 µg/mL
MIC [6]: 2 µg/mL
MIC [7]: 2 µg/mL
